{
  "source": "paper PMC6340882",
  "about": "“Targeting protein kinase CK2 and CDK4/6 pathways with a multi-kinase inhibitor ON108110 suppresses pro-survival signaling and growth in mantle cell lymphoma and T-acute lymphoblastic leukemia” (Oncotarget, 2018)",
  "key": {"[1]": {"target": "T1, recombinant CK2α1 kinase domain (Homo sapiens, UniProt P68400)", "T1 construct": "Amino acid residues 3-335 of CK2α1 were cloned using BamH1 and HindIII into pET28bsmt3-SUMO fusion vector; His6 (N, cleaved yes); SUMO (N, cleaved yes); made in house; host or cells: Escherichia coli BL21-DE3 (RIL)", "T1 sequence (P68400 3-335)": "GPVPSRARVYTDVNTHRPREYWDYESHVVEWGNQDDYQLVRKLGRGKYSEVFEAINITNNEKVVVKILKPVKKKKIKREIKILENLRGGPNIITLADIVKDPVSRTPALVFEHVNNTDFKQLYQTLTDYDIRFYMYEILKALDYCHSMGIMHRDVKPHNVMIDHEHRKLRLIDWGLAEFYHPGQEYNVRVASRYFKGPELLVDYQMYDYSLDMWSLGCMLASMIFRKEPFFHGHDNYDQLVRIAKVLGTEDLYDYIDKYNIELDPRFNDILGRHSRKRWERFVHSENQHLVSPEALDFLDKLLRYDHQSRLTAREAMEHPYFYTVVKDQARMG", "assay": "Differential scanning fluorimetry (DSF)", "type": "binding", "settings": "apo protein Tm 58°C", "experimental": "1μM of in-house purified recombinant CK2α1 was diluted in protein buffer and added to a final concentration of 1X of Sypro Orange Dye in the presence of DMSO or increasing concentrations of ON108110. Following a 20 min incubation at room temperature, 20μl samples were pipetted into a clear MicroAmp Fast 96-well Reaction PCR plates and sealed with MicroAmp Optical Adhesive Film. The assay was performed using a StepOne Plus RT-PCR instrument (Applied Biosystems) using an increasing temperature gradient of 20 to 90°C in 0.2°C increments using a 200- millisecond stabilization delay. Florescence readings were acquired with excitation and emission wavelengths of 580±10 nm and 624±14 nm respectively. A customized analysis program (Step One Plus Protein Thermal Shift Software) was used to calculate the Tm from each fluorescence profile (Boltzmann method) and the Tm of the fluorescence (derivative method). Derivative Tm values were obtained from the top of the peak in the derivative plot, while the Boltzmann Tm values calculated from the inflection point of the fluorescence plot."}, "Granta-519 and CEM cells": {"test_system": "Granta-519 and CEM cells", "assay": "Cell cycle analysis, propidium iodide staining and flow cytometry", "type": "cell-based, human", "settings": "0.5-2.0μM, 24 hours", "experimental": "Figure 5 Modulation of cell cycle expression and induction of apoptosis in ON 108110-treated MCL and T-ALL cell lines (A) CEM and Granta-519 cells were treated with either DMSO or increasing concentrations of ON108110 (0.5-2.0μM) for 24 hours. Cell cycle analysis was performed using propidium iodide staining. (B) CEM, HBL-2, RS4-11 and Granta-519 cells were treated with either DMSO (vehicle) or increasing concentrations of ON108110 (0.5-2.0 μM) for 24 hours and stained with Annexin V/DAPI (C) Graphical representation of apoptosis induced as shown in B. (D) Granta-519 cells were treated with increasing concentrations of ON108110 for 24 hours. Caspase activation and viability were measured using the Caspase Glo 3/7 and Cell Titer Blue assay kits, respectively. […]\nTo determine cell cycle distribution, 70% ethanol fixed cells were washed with phosphate buffered saline (PBS), resuspended in PBS and incubated with RNase and propidium iodide at 37°C for 20 min. DNA content was analyzed on a FACS Calibur (BD Immunocytometry Systems) and the data analyzed using Flowjo software (Treestar). Annexin V staining was measured using the FITC Annexin V Apoptosis Detection Kit I (BD Biosciences) according to the instructions of the manufacturer except that DAPI was substituted at a concentration of […] to measure DNA content."}},
  "data": [
    {"compound": "CC(=O)Oc1ccc(/C=C2\\Sc3ccc(F)cc3NC2=O)cc1[N+](=O)[O-]", "note": "[ON108110]", "values": [
      {"measurement": "melting temperature (Tm) of CK2α1 with compound", "setting": "[1]", "value": 64.8, "unit": "°C"},
      {"measurement": "shift in the Tm of CK2α1", "setting": "[1]", "value": 6.8, "unit": "°C"},
      {"measurement": "effect on cell cycle progression", "setting": "Granta-519 and CEM cells", "value": "rapid accumulation of the cells in the G1 phase"}
    ]}
  ]
}
